Test results published in patent publication US7138361B2, “Herbicidal heterocycles” (E. I. du Pont de Nemours and Company, priority 2000, dated 2006).

How the values were obtained:
Assay type in all cases: in vivo
[1] = system: blackgrass (Alopecurus myosuroides); test: Test B postemergence; conditions: 13 to 15 days
Method in brief: (§1)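 Ratings on a 0 to 100 visual scale (100 complete control) compare treated plants with controls 13 to 15 days after application. Treatments were pre- or postemergence sprays of compound in non-phytotoxic solvent with surfactant.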

[2] = system: wheat (Triticum aestivum); test: Test B postemergence; conditions: 13 to 15 days
Method in brief: as §1

[3] = system: barnyardgrass (Echinochloa crus-galli); test: Test B postemergence; conditions: 13 to 15 days
Method in brief: as §1

[4] = system: giant foxtail (Setaria faberii); test: Test B postemergence; conditions: 13 to 15 days
Method in brief: as §1

[5] = system: morning glory (Ipomoea hederacea); test: Test B postemergence; conditions: 13 to 15 days
Method in brief: as §1

corn (Zea mays) [6] = test: Test B postemergence; conditions: 13 to 15 days
Method in brief: as §1

[7] = system: Surinam grass (Brachiaria decumbens); test: Test B postemergence; conditions: 13 to 15 days
Method in brief: as §1

[8] = system: pigweed (Amaranthus retroflexus); test: Test B postemergence; conditions: 13 to 15 days
Method in brief: as §1

[9] = system: velvetleaf (Abutilon theophrasti); test: Test B postemergence; conditions: 13 to 15 days
Method in brief: as §1

[10] = system: duck salad (Heteranthera limosa); test: Test C flooded paddy test; conditions: for Ducksalad plant response rating: Flooded Paddy, scale 0 to 100, 0 no effect, 100 complete control; for Plant response rating, Ducksalad: flooded paddy test, scale 0 to 100 (0 no effect, 100 complete control)
Method in brief: (§2)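 Visual injury score, 0 (no effect) to 100 (complete control), relative to controls. Paddy plants treated at 2-leaf stage; greenhouse hold 12–14 d before rating.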

[11] = system: barnyardgrass (Echinochloa crus-galli); test: Test C flooded paddy test; conditions: for Barnyardgrass plant response rating: Flooded Paddy, scale 0 to 100, 0 no effect, 100 complete control; for Plant response rating, Barnyardgrass: flooded paddy test, scale 0 to 100 (0 no effect, 100 complete control)
Method in brief: as §2

[12] = system: smallflower flatsedge (Cyperus difformis); test: Test C flooded paddy test; conditions: for Flatsedge plant response rating: Flooded Paddy, scale 0 to 100, 0 no effect, 100 complete control; for Plant response rating, Flatsedge: flooded paddy test, scale 0 to 100 (0 no effect, 100 complete control)
Method in brief: as §2

rice (Oryza saliva) [13] = test: Test C flooded paddy test; conditions: for Rice plant response rating: Flooded Paddy, scale 0 to 100, 0 no effect, 100 complete control; for Plant response rating, Rice: flooded paddy test, scale 0 to 100 (0 no effect, 100 complete control)
Method in brief: as §2

[14] = system: barnyardgrass (Echinochloa crus-galli); test: Test B preemergence
Method in brief: as §1

[15] = system: lambsquarters (Chenopodium album); test: Test B preemergence
Method in brief: as §1

rice (Oryza saliva) [16] = test: Test B preemergence
Method in brief: as §1

[17] = system: crabgrass (Digitaria sanguinalis); test: Test B preemergence
Method in brief: as §1

[18] = system: giant foxtail (Setaria faberii); test: Test B preemergence
Method in brief: as §1

[19] = system: morning glory (Ipomoea hederacea); test: Test B preemergence
Method in brief: as §1

corn (Zea mays) [20] = test: Test B preemergence
Method in brief: as §1

[21] = system: Surinam grass (Brachiaria decumbens); test: Test B preemergence
Method in brief: as §1

[22] = system: cocklebur (Xanthium strumarium); test: Test B preemergence
Method in brief: as §1

[23] = system: pigweed (Amaranthus retroflexus); test: Test B preemergence
Method in brief: as §1

[24] = system: velvetleaf (Abutilon theophrasti); test: Test B preemergence
Method in brief: as §1

[25] = Rate 125 g/ha, scale 0 (no effect) to 100 (complete control)
[26] = Rate 500 g/ha, scale 0 to 100, 0 is no effect, 100 is complete control
[27] = Preemergence, Rate 500 g/ha, scale 0 to 100, 0 no effect, 100 complete control
[28] = preemergence, Rate 125 g/ha, scale of 0 to 100 where 0 is no effect and 100 is complete control, 13 to 15 days

CC1(c2ccn(C3OCN(c4cccc(OC(F)(F)F)c4)C3=O)n2)CC1 (centres unmarked) [Compound 69]
Plant response rating, Blackgrass [1, 25]: 70
Plant response rating, Blackgrass [1, 26]: 70
Plant response rating, Wheat [2, 25]: 0
Plant response rating, Wheat [2, 26]: 0
Plant response rating, Barnyardgrass [3, 25]: 0
Plant response rating, Barnyardgrass [3, 26]: 90
Plant response rating, Foxtail, Giant [4, 25]: 0
Plant response rating, Foxtail, Giant [4, 26]: 0
Plant response rating, Morningglory [5, 25]: 0
Plant response rating, Morningglory [5, 26]: 0
Plant response rating, Corn (corn (Zea mays) [6]; [25]): 0
Plant response rating, Corn (corn (Zea mays) [6]; [26]): 0
Plant response rating, Surinam grass [7, 25]: 0
Plant response rating, Surinam grass [7, 26]: 0
Plant response rating, Pigweed [8, 25]: 0
Plant response rating, Pigweed [8, 26]: 0
Plant response rating, Velvetleaf [9, 25]: 0
Plant response rating, Velvetleaf [9, 26]: 0
Ducksalad plant response rating ([10]; Rate 250 g/ha): 0
Ducksalad plant response rating ([10]; Rate 500 g/ha): 20
Plant response rating, Ducksalad ([10]; Rate 62 g/ha): 0
Plant response rating, Ducksalad ([10]; Rate 125 g/ha): 0
Barnyardgrass plant response rating ([11]; Rate 250 g/ha): 100
Barnyardgrass plant response rating ([11]; Rate 500 g/ha): 100
Plant response rating, Barnyardgrass ([11]; Rate 62 g/ha): 30
Plant response rating, Barnyardgrass ([11]; Rate 125 g/ha): 30
Flatsedge plant response rating ([12]; Rate 250 g/ha): 100
Flatsedge plant response rating ([12]; Rate 500 g/ha): 100
Plant response rating, Flatsedge ([12]; Rate 62 g/ha): 100
Plant response rating, Flatsedge ([12]; Rate 125 g/ha): 100
Rice plant response rating (rice (Oryza saliva) [13]; Rate 250 g/ha): 40
Rice plant response rating (rice (Oryza saliva) [13]; Rate 500 g/ha): 80
Plant response rating, Rice (rice (Oryza saliva) [13]; Rate 62 g/ha): 0
Plant response rating, Rice (rice (Oryza saliva) [13]; Rate 125 g/ha): 20
Plant response rating, Barnyardgrass [14, 27]: 40
Plant response rating, Barnyardgrass [14, 28]: 20
Plant response rating, Lambsquarters [15, 27]: 100
Plant response rating, Lambsquarters [15, 28]: 90
Plant response rating, Rice (rice (Oryza saliva) [16]; [27]): 0
Plant response rating, Rice (rice (Oryza saliva) [16]; [28]): 0
Plant response rating, Crabgrass [17, 27]: 0
Plant response rating, Crabgrass [17, 28]: 0
Plant response rating, Foxtail, Giant [18, 27]: 0
Plant response rating, Foxtail, Giant [18, 28]: 0
Plant response rating, Morningglory [19, 27]: 0
Plant response rating, Morningglory [19, 28]: 0
Plant response rating, Corn (corn (Zea mays) [20]; [27]): 0
Plant response rating, Corn (corn (Zea mays) [20]; [28]): 0
Plant response rating, Surinam grass [21, 27]: 20
Plant response rating, Surinam grass [21, 28]: 20
Plant response rating, Cocklebur [22, 27]: 20
Plant response rating, Cocklebur [22, 28]: 0
Plant response rating, Pigweed [23, 27]: 90
Plant response rating, Pigweed [23, 28]: 60
Plant response rating, Velvetleaf [24, 27]: 0
Plant response rating, Velvetleaf [24, 28]: 0
